Legend:
lac repressor (lacR) = lac repressor (lacR) (Escherichia coli, UniProt P03023); assay: Sensing a lactose analog (IPTG) using DNA biosensors: IPTG-dependent loss of lacR-assembled full DNA site, detected by single-molecule fluorescence (protein-dependent DNA coincidence); type: binding, bacteria; conditions: FIG. 16; IPTG interaction with lacR (tetrameric bacterial repressor); fraction of bursts with intermediate stoichiometry vs IPTG concentration
Text: For the purposes of our assay, the fluorophores can be placed far from the protein binding site (as long as the fluorophores are spaced by less than approximately 200 base pairs); as such, there is no perturbation of protein-DNA binding and no information about the exact structure of the protein-DNA complex is necessary. The concept is described in FIG. 3. In the absence of a DNA-binding protein, for example, a dimeric protein, such as a dimeric transcription factor, two DNA fragments with short and complementary single-stranded DNA tails diffuse independently in solution (top panel). In the presence of a DNA-binding protein that binds specifically to the fully assembled DNA site, the two DNA fragments diffuse as a single molecular complex (a 1:1 donor-acceptor species); such a species can be easily differentiated from the free DNA half-sites and can be counted, giving information about the concentration of the specific DNA-binding protein. […]
An example of sensing the concentration of a small molecule using protein-dependent DNA coincidence. In the absence (or low concentration) of the molecule to be sensed (yellow triangle), the transcription factor binds to DNA with high affinity and gives rise to DNA coincidence detected by single-molecule fluorescence. […]

lacR = lacR (Escherichia coli, UniProt P03023); assay: sensing a lactose analog (IPTG) using DNA biosensors (lacR-dependent DNA coincidence); type: binding, bacteria
Text: An example of sensing the concentration of a small molecule using protein-dependent DNA coincidence. In the absence (or low concentration) of the molecule to be sensed (yellow triangle), the transcription factor binds to DNA with high affinity and gives rise to DNA coincidence detected by single-molecule fluorescence.
FIG. 16. Sensing a lactose analog (IPTG) using DNA biosensors. […] A plot of the number of molecules with intermediate stoichiometry can be used as a calibration curve to identify the concentration of the small molecule, provided that the concentration is not much higher or much lower than the Kd for the interaction of the small molecule with the DNA-binding protein.

lacR, sequence (P03023 whole entry): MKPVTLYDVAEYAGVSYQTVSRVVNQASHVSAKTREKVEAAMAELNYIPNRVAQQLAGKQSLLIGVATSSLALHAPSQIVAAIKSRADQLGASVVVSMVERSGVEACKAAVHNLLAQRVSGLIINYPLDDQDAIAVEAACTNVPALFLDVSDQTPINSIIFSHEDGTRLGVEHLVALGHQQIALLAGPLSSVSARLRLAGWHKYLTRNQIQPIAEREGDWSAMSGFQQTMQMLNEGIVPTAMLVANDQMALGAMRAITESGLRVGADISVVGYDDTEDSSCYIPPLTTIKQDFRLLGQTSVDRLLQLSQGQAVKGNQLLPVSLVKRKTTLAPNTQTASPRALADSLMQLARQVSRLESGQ
lac repressor (lacR), sequence (P03023 whole entry): as above

CC(C)S[C@@H]1O[C@H](CO)[C@H](O)[C@H](O)[C@H]1O [IPTG]
Kd (lac repressor (lacR)): 1000 to 2000 nM
lacR assembly of the full DNA site (lacR; high concentration of IPTG, relative fraction of bursts with intermediate stoichiometry decreases): does not assemble the full site
lacR assembly of the full DNA site (lacR; low concentration of IPTG, relative fraction of bursts with intermediate stoichiometry increases): does bind and assemble the full site

— patent US20100216249A1, “DNA-Based Biosensors” (ISIS INNOVATION LIMITED, priority 2007, published 2010)
